Here are results for 19 molecules from patent publication US20250154154A1 (Relay Binney Street, 2nd Floor, priority 2020, published 2025).

Structures can show the parent of a compound that is named as a salt.

One test concerns RBE cells. Put plainly: Cell Viability Protocol (CellTiterGlo), RBE cells. It is filed as cell-based. The note with it: RBE or SNU-1079 cells, 72 or 120 hour, cell line and time not given. A digest of the protocol:
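After 72 h or 120 h compound exposure at 37° C, viability was read by CellTiterGlo as % of DMSO vehicle, with IC50 fitted by a 4-parameter curve. Cells had been seeded at 1200/well in 10% FBS RPMI 1640 and allowed 24 h before dosing.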
A general note: In ATP-based viability assays light output follows the ATP content of the culture.

Test [1] concerns phospho-S6RP (Ser 235/236) in RBE cells. Put plainly: Cellular Proliferation Protocol (cellular phospho-S6RP HTRF), RBE cells. To be noted: 6 hours treatment, RBE or SNU-1079 cells, cell line not given. The test is classed as cell-based. A digest of the protocol: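 Phospho-S6RP (Ser 235/236) was quantified by HTRF in lysed RBE cells (2000/well) after a 6 h treatment at 37° C, with overnight antibody incubation at room temperature. IC50 values came from 4-parameter dose-response fits relative to DMSO vehicle.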

A further test addresses SRC (Homo sapiens, UniProt P12931). Put plainly: SRC Biochemical Assay Protocol (microfluidic mobility shift assay, FLPeptide4 substrate). A digest of the protocol: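 Mobility-shift readout of phosphorylated FLPeptide4 (1.5 μM) after 90 min kinase reaction with 50 μM ATP and 0.26 nM SRC in pH 7.4 HEPES buffer. Compounds, tested 0.0017–100 μM, were preincubated 30 min with enzyme and peptide; IC50 from 4-parameter logistic fit versus neutral controls.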

As usually defined, the IC50 is the concentration that inhibits the measured activity by half.

Chain of SRC (P12931 whole entry, species assumed): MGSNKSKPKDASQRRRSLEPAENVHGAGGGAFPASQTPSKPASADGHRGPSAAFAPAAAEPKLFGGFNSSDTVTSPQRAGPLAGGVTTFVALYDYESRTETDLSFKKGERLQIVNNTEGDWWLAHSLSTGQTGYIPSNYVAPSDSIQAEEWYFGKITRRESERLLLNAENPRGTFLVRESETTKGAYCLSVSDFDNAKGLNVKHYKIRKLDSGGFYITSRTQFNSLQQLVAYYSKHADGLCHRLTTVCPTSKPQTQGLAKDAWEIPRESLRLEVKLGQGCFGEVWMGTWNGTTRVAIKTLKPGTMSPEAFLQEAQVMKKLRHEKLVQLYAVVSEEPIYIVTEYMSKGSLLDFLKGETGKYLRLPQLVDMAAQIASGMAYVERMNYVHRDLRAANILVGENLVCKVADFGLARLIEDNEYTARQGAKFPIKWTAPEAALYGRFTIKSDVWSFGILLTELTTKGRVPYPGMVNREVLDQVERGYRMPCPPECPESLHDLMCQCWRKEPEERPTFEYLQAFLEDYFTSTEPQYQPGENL

`COCCN(C)C/C=C/C(=O)N1C[C@@H]2[C@@H](C#Cc3c(-c4ccc(Oc5cccc(F)c5)cc4)c4c(N)ncnc4n3C)[C@@H]2C1` [II-232, (E)-1-((1R,5S,6s)-6-((4-amino-5-(4-(3-fluorophenoxy)phenyl)-7-methyl-7H-pyrrolo[2,3-d]pyrimidin-6-yl)ethynyl)-3-azabicyclo[3.1.0]hexan-3-yl)-4-((2-methoxyethyl) (methyl)amino)but-2-en-1-one]: the IC50 (in the test with RBE cells; in test [1] (6 h); at SRC) was 10 to 1000 nM in each case.
For the molecule `C=CC(=O)N1CC(N2CCC(C#Cc3c(-c4ccc(Oc5ccccc5)cc4)c4c(N)ncnc4n3C(C)C)CC2)C1` [Example I-45], the IC50 (in the test with RBE cells; in test [1] (6 h); on SRC) was at most 10 nM throughout.
For `Cn1c(C#CC2CC3(C2)CN(C(=O)/C=C/CN2CCC2)C3)c(-c2ccc(Oc3ccccc3)cc2)c2c(N)ncnc21` [II-173, (E)-1-(6-((4-amino-7-methyl-5-(4-phenoxyphenyl)-7H-pyrrolo[2,3-d]pyrimidin-6-yl)ethynyl)-2-azaspiro[3.3]heptan-2-yl)-4-(azetidin-1-yl)but-2-en-1-one], the results for the IC50 (in the test with RBE cells; in test [1] (6 h); on SRC) were at most 10 nM, 10 to 1000 nM and at most 10 nM, respectively.
In the case of `C=CC(=O)N1CCC(N2CC(C#Cc3c(-c4ccc(Cl)cc4)c4c(N)ncnc4n3C(C)C)C2)CC1` [II-84], the results for the IC50 (in the test with RBE cells; in test [1]; on SRC) were 10 to 1000 nM, 10 to 1000 nM and at most 10 nM, respectively.
Consider `Cn1c(C#CC2CC3(C2)CN(C(=O)/C=C/CN2CC(F)C2)C3)c(-c2ccc(Oc3ccccc3)cc2)c2c(N)ncnc21` [II-175, (E)-1-(6-((4-amino-7-methyl-5-(4-phenoxyphenyl)-7H-pyrrolo[2,3-d]pyrimidin-6-yl)ethynyl)-2-azaspiro[3.3]heptan-2-yl)-4-(3-fluoroazetidin-1-yl)but-2-en-1-one], for which the IC50 with RBE cells was at most 10 nM; in test [1] (6 h) it was 10 to 1000 nM; at SRC, 10 to 1000 nM.
Regarding `C=CC(=O)N1C[C@@H]2[C@@H](C#Cc3c(-c4ccc(Oc5cccc(C)n5)c(OC)c4)c4c(N)ncnc4n3C(C)C)[C@@H]2C1` [II-219, 1-((1R,5S,6s)-6-((4-amino-7-isopropyl-5-(3-methoxy-4-((6-methylpyridin-2-yl)oxy)phenyl)-7H-pyrrolo[2,3-d]pyrimidin-6-yl)ethynyl)-3-azabicyclo[3.1.0]hexan-3-yl)prop-2-en-1-one], the concentration for half-maximal inhibition (IC50) (in the test on RBE cells; in test [1] (6 h); at SRC) was at most 10 nM throughout.
Consider `C=CC(=O)N1C[C@@H]2[C@@H](C#Cc3c(-c4ccc(Oc5cccc(C)n5)cc4)c4c(N)ncnc4n3C3CCOC3)[C@@H]2C1` (mixture of isomers) [II-24], for which the IC50 (with RBE cells; in test [1]; at SRC) was at most 10 nM in each case.
Consider `C=CC(=O)N1CC[C@@H](N2CC(C#Cc3c(-c4ccc(Cl)cc4)c4c(N)ncnc4n3C(C)C)C2)[C@@H](O)C1` [II-53], for which the results for the half-maximal inhibitory concentration (IC50) (in the test on RBE cells; in test [1]; at SRC) were 10 to 1000 nM, 10 to 1000 nM and at most 10 nM, respectively.
In the case of `C=CC(=O)N1CCC(N2CC(C#Cc3c(-c4ccc(Oc5cccc(C)n5)cc4)c4c(N)ncnc4n3C)C2)C(F)C1` (stereo not drawn) [II-216, 1-(4-(3-((4-amino-7-methyl-5-(4-(6-methylpyridin-2-yloxy)phenyl)-7H-pyrrolo[2,3-d]pyrimidin-6-yl)ethynyl)azetidin-1-yl)-3-fluoropiperidin-1-yl)prop-2-en-1-one], the IC50 (in the test with RBE cells; in test [1] (6 h); at SRC) was 10 to 1000 nM each time.
Consider `C=CC(=O)N1CCC(N2CC(F)(C#Cc3c(-c4ccc(Oc5cccc(C)n5)cc4)c4c(N)ncnc4n3C)C2)C[C@H]1CO` (stereo partly drawn) [II-204, 1-((2S)-4-(3-((4-amino-7-methyl-5-(4-((6-methylpyridin-2-yl)oxy)phenyl)-7H-pyrrolo[2,3-d]pyrimidin-6-yl)ethynyl)-3-fluoroazetidin-1-yl)-2-(hydroxymethyl)piperidin-1-yl)prop-2-en-1-one], for which the concentration for half-maximal inhibition (IC50) (with RBE cells; in test [1] (6 h); on SRC) was 10 to 1000 nM in each case.
With `COc1cc(Oc2ccccn2)ccc1-c1c(C#C[C@@H]2[C@H]3CN(C(=O)/C=C/CN(C)C)C[C@@H]23)n(C)c2ncnc(N)c12` [II-227, (E)-1-((1R,5S,6s)-6-((4-amino-5-(2-methoxy-4-(pyridin-2-yloxy)phenyl)-7-methyl-7H-pyrrolo[2,3-d]pyrimidin-6-yl)ethynyl)-3-azabicyclo[3.1.0]hexan-3-yl)-4-(dimethylamino) but-2-en-1-one], the half-maximal inhibitory concentration (IC50) (in the test with RBE cells; in test [1] (6 h); at SRC) was 10 to 1000 nM in each case.
Regarding `C=CC(=O)N1CCC(N2CC(C#Cc3c(-c4ccc(Oc5ccccc5)c(OC)c4)c4c(N)ncnc4n3C)C2)CC1` [II-1], the IC50 in the test with RBE cells is at most 10 nM; in test [1] (6 h) it was at most 10 nM; at SRC, 10 to 1000 nM.
In the case of `C=CC(=O)N1CC[C@@H](N2CC(C#Cc3c(-c4ccc5c(c4)OCCN5C)c4c(N)ncnc4n3C)C2)[C@@H](O)C1` [II-75], the IC50 (in the test with RBE cells; in test [1]; on SRC) was 1000 to 10000 nM in each case.
On to `COc1cc(Oc2ccccc2F)ccc1-c1c(C#C[C@@H]2[C@H]3CN(C(=O)/C=C/CN(C)C)C[C@@H]23)n(C)c2ncnc(N)c12` [II-228, (E)-1-((1R,5S,6s)-6-((4-amino-5-(4-(2-fluorophenoxy)-2-methoxyphenyl)-7-methyl-7H-pyrrolo[2,3-d]pyrimidin-6-yl)ethynyl)-3-azabicyclo[3.1.0]hexan-3-yl)-4-(dimethylamino) but-2-en-1-one], for which the 50% inhibitory concentration (IC50) (with RBE cells; in test [1] (6 h); at SRC) was 10 to 1000 nM throughout.
Take `C=CC(=O)N1CCC(O)(C#Cc2c(-c3ccc(Oc4cccc(C)n4)c(OC)c3)c3c(N)ncnc3n2C)CC1` [II-304, formate]: the IC50 (in the test with RBE cells; in test [1] (6 h); on SRC) was 10 to 1000 nM in each case.
Consider `C=CC(=O)N1CC[C@@H](N2CC(C#Cc3c(-c4ccc(OC5COC5)cc4)c4c(N)ncnc4n3C(C)C)C2)[C@@H](O)C1` [II-57], for which the half-inhibitory concentration (IC50) in the test with RBE cells is 1000 to 10000 nM; in test [1] it was 1000 to 10000 nM; on SRC, 10 to 1000 nM.
For the molecule `C=CC(=O)N1CC[C@@H](N2CC(C#Cc3c(-c4ccc(Oc5cccc(C)n5)cc4OC)c4c(N)ncnc4n3C)C2)[C@@H](O)C1` [II-19], the results for the IC50 (with RBE cells; in test [1]; at SRC) were 1000 to 10000 nM, 10 to 1000 nM and 10 to 1000 nM, respectively.
In the case of `C=CC(=O)N1CCN(C2CC(C#Cc3c(-c4ccc(Oc5ccccc5)cc4)c4c(N)ncnc4n3C)C2)CC1` (stereo not drawn) [II-167, 1-(4-(3-((4-amino-7-methyl-5-(4-phenoxyphenyl)-7H-pyrrolo[2,3-d]pyrimidin-6-yl)ethynyl)cyclobutyl)piperazin-1-yl)prop-2-en-1-one], the figures for the half-maximal inhibitory concentration (IC50) (in the test on RBE cells; in test [1] (6 h); at SRC) were at most 10 nM, 10 to 1000 nM and 10 to 1000 nM, respectively.
Regarding `C=CC(=O)N[C@H](CO)C(=O)N1CCC(C#Cc2c(-c3ccc(Oc4cccc(C)n4)cc3)c3c(N)ncnc3n2C)CC1` [II-200, (R)-N-(1-(4-((4-amino-7-methyl-5-(4-((6-methylpyridin-2-yl)oxy)phenyl)-7H-pyrrolo[2,3-d]pyrimidin-6-yl)ethynyl)piperidin-1-yl)-3-hydroxy-1-oxopropan-2-yl)acrylamide], the half-inhibitory concentration (IC50) (in the test on RBE cells; in test [1] (6 h); at SRC) was 10 to 1000 nM each time.
